Tests used:
Experiment in all cases: Test C preemergence
Format in all cases: in vivo
[1] = system: soybean (Glycine max); settings: Glycine max, pre-emergence, scale 0 to 100, read-out: Plant response rating, Soybean
In short: (§1)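 Visual ratings were made 13-15 days after treatment in the greenhouse, scored 0-100 against controls, where 100 means complete control. Treatments used a surfactant-containing non-phytotoxic solvent formulation, applied preemergence to seeds in loam-sand soil or postemergence to 2-18 cm plants (1-4 leaves) in peat-based medium.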

[2] = system: galium (catchweed bedstraw, Galium aparine); settings: Galium, pre-emergence, 336 h, scale 0 to 100, read-out: Plant response rating, Galium
In short: as §1

[3] = system: yellow nutsedge (Cyperus esculentus); settings: Cyperus, pre-emergence, 336 h, scale 0 to 100, read-out: Plant response rating, Nutsedge, Yellow
In short: as §1

[4] = system: johnsongrass (Sorghum halepense); settings: Sorghum halepense, pre-emergence, 336 h, scale 0 to 100, read-out: Plant response rating, Johnsongrass
In short: as §1

[5] = system: corn (Zea mays); settings: Zea mays, pre-emergence, 336 h, scale 0 to 100
In short: as §1

[6] = system: oilseed rape (Brassica napus); settings: Brassica napus, pre-emergence, scale 0 to 100, read-out: Plant response rating, Oilseed Rape
In short: as §1

[7] = system: ragweed (common ragweed, Ambrosia elatior); settings: Ambrosia artemisiifolia, pre-emergence, 336 h, scale 0 to 100, read-out: Plant response rating, Ragweed
In short: as §1

[8] = system: blackgrass (Alopecurus myosuroides); settings: Alopecurus myosuroides, pre-emergence, 336 h, scale 0 to 100, read-out: Plant response rating, Blackgrass
In short: as §1

[9] = system: waterhemp (common waterhemp, Amaranthus rudis); settings: Amaranthus tuberculatus, pre-emergence, scale 0 to 100, read-out: Plant response rating, Waterhemp
In short: as §1

[10] = system: giant foxtail (Setaria faberii); settings: Setaria faberi, pre-emergence, 336 h, scale 0 to 100, read-out: Plant response rating, Foxtail, Giant
In short: as §1

[11] = system: large (Lg) crabgrass (Digitaria sanguinalis); settings: Digitaria sanguinalis, pre-emergence, 336 h, scale 0 to 100, read-out: Plant response rating, Crabgrass, Large
In short: as §1

Work on `N#Cc1cccc(Oc2ncc(Cl)cn2)c1Oc1ncc(Br)cn1` [Compound 4, 2-[(5-bromo-2-pyrimidinyl)oxy]-3-[(5-chloro-2-pyrimidinyl)oxy]benzonitrile] yielded a plant injury at 62 g/ha ([1]; 62 g ai/ha, preemergence) of 50%, a plant injury at 125 g/ha ([1]; 125 g ai/ha, preemergence) of 95% and a plant injury at 16 g/ha ([1]; Preemergence, 16 g ai/ha) of 5%. For the same molecule, the pest or weed control at 31 g/ha ([2]; 31 g ai/ha, preemergence) was 30%, the pest or weed control at 62 g/ha ([2]; 62 g ai/ha, preemergence) was 30% and the pest or weed control at 125 g/ha ([2]; 125 g ai/ha, preemergence) was 100%. It also gave a pest or weed control at 16 g/ha ([2]; Preemergence, 16 g ai/ha) of 5%, a pest or weed control at 31 g/ha ([3]; 31 g ai/ha, preemergence) of 0% and a pest or weed control at 62 g/ha ([3]; 62 g ai/ha, preemergence) of 30%. It also gave a pest or weed control at 125 g/ha ([3]; 125 g ai/ha, preemergence) of 55%, a pest or weed control at 16 g/ha ([3]; Preemergence, 16 g ai/ha) of 0% and a pest or weed control at 31 g/ha ([4]; 31 g ai/ha, preemergence) of 15%. It also gave a pest or weed control at 62 g/ha ([4]; 62 g ai/ha, preemergence) of 80%, a pest or weed control at 125 g/ha ([4]; 125 g ai/ha, preemergence) of 98% and a pest or weed control at 16 g/ha ([4]; Preemergence, 16 g ai/ha) of 0%. It also gave a Corn plant response rating (crop injury, 0 = no effect, 100 = complete kill) at 31 g/ha ([5]; 31 g ai/ha, preemergence) of 5%, a Corn plant response rating (crop injury, 0 = no effect, 100 = complete kill) at 62 g/ha ([5]; 62 g ai/ha, preemergence) of 10% and a Corn plant response rating (crop injury, 0 = no effect, 100 = complete kill) at 125 g/ha ([5]; 125 g ai/ha, preemergence) of 35%. It also gave a Corn plant response rating (crop injury, 0 = no effect, 100 = complete kill) at 16 g/ha ([5]; Preemergence, 16 g ai/ha) of 0%, a plant injury at 31 g/ha ([6]; 31 g ai/ha, preemergence) of 75% and a plant injury at 62 g/ha ([6]; 62 g ai/ha, preemergence) of 90%. For the same molecule, the plant injury at 125 g/ha ([6]; 125 g ai/ha, preemergence) was 100%, the plant injury at 16 g/ha ([6]; Preemergence, 16 g ai/ha) was 15% and the pest or weed control at 31 g/ha ([7]; 31 g ai/ha, preemergence) was 10%. The pest or weed control at 62 g/ha ([7]; 62 g ai/ha, preemergence) was 5%, the pest or weed control at 125 g/ha ([7]; 125 g ai/ha, preemergence) was 70% and the pest or weed control at 16 g/ha ([7]; Preemergence, 16 g ai/ha) was 0%. The pest or weed control at 31 g/ha ([8]; 31 g ai/ha, preemergence) was 30%, the pest or weed control at 62 g/ha ([8]; 62 g ai/ha, preemergence) was 95% and the pest or weed control at 125 g/ha ([8]; 125 g ai/ha, preemergence) was 95%. For the same molecule, the pest or weed control at 16 g/ha ([8]; Preemergence, 16 g ai/ha) was 0%, the pest or weed control at 31 g/ha ([9]; 31 g ai/ha, preemergence) was 100% and the pest or weed control at 62 g/ha ([9]; 62 g ai/ha, preemergence) was 100%. It also gave a pest or weed control at 125 g/ha ([9]; 125 g ai/ha, preemergence) of 100%, a pest or weed control at 16 g/ha ([9]; Preemergence, 16 g ai/ha) of 45% and a pest or weed control at 31 g/ha ([10]; 31 g ai/ha, preemergence) of 98%. The pest or weed control at 62 g/ha ([10]; 62 g ai/ha, preemergence) was 100%, the pest or weed control at 125 g/ha ([10]; 125 g ai/ha, preemergence) was 100% and the pest or weed control at 16 g/ha ([10]; Preemergence, 16 g ai/ha) was 10%. The pest or weed control at 31 g/ha ([11]; 31 g ai/ha, preemergence) was 100%, the pest or weed control at 62 g/ha ([11]; 62 g ai/ha, preemergence) was 100% and the pest or weed control at 125 g/ha ([11]; 125 g ai/ha, preemergence) was 100%. For the same molecule, the pest or weed control at 16 g/ha ([11]; Preemergence, 16 g ai/ha) was 75%.
